These results are taken from patent US20180017584A1, “ADDITIVE CHANNELS” (Emulate Inc., priority 2016, published 2018).

Positions of bridges follow the written chain, without caps; N, C: chain ends. Non-standard residues stand in square brackets, D forms with d. Residues, ends and D or L forms follow the SMILES beside them. hArg = N=C(N)NCCCC[C@H](N)C(=O)O; Mpa = O=C(O)CCS

The test system of one series is lupus nephritis patients. As to conditions: lupus nephritis clinical study; cited from earlier work.
Series [1] relates to human whole blood perfused over HUVEC endothelium. Put plainly: Thrombosis on-chip, combined endpoints (platelet coverage, fibrin deposition, TAT). The series is classed as cell-based. As to conditions: hu5C8 alone 240 μg/mL; sCD40L alone 10 ng/ml; 4 donors; 60 μl/minute. The procedure:
(§1) Blood Pre-treatment and Perfusion: Formation of IC (preformed IC): Hu5C8, IgG2σ (control) (both provided by Janssen or provided as described herein) For studies with preformed IC, Hu5C8 or IgG2σ as an isotype control were combined with sCD40L (Tonbo Biosciences, San Diego, Calif.) in PBS, in a ratio of I molecule of sCD40L to 3000 molecules of antibody. After 20 minutes incubation at room temperature, the solution was diluted in a blood sample to reach the final concentration of 240 μg/ml (Hu5C8) and 10 ng/ml (sCD40L).
(§2) To test for a thrombic event, blood was collected from 4 donors, the as blood alone or blood treated with hu5C8 alone (240 μg/mL), sCD40L (10 ng/ml) alone or with combined hu5C8/sCD40L was incubated for 20 minutes at room temperature. Each sample was further incubated for 5 minutes with fluorescent labels for platelets and fibrinogen. As a standard quality control, the control blood was tested for platelet activation using p-selection expression. We confirmed that platelets in control blood were not activated but upon activation by ADP, over 90% of platelet was positive for p-selectin.
Re-calcified blood samples were then perfused through the biomimetic vessel with untreated endothelium at a flow rate of 60 ul/minute for about 10 minutes while sodium citrate was re-introduced through the anticoagulant port. […]

The test system of series [2] is platelets in human whole blood perfused over HUVEC endothelium. Put plainly: Vessel-On-Chip blood perfusion, platelet coverage / aggregation by fluorescence imaging (CD41 label). The following applies: for platelet coverage / platelet aggregate formation on the endothelium: vs blood alone, TNF-α 50 ng/ml 6 h, sCollagen 10 μg/ml, hu5C8 240 μg/ml + sCD40L 10 ng/ml. The series is classed as cell-based. The method, then: (§3) Experiments with Blood: Blood Samples And Endothelium: Citrated human blood (Research Blood Components, Cambridge, Mass.) was used within 4 hours of a blood draw in order to minimize pre-analytical effects on platelet function. Before every experiment, each one of the endothelialized channels (i.e. microchannels having an endothelial cell layer) was inspected via light microscopy, Samples showing any sign of discontinuity in the endothelium were discarded.
as §1
Platelets: Platelets were labeled with human CD41-PE antibody (10 μL/ml. Invitrogen) directly added to the blood and incubated at room temperature for 5 minutes.
Anticoagulant Drug: As an exemplary standard antiplatelet (anticoagulant) drug, Eptifibatide was used as described herein. Eptifibatide has a well-known mechanism of action, such that a bolus of 180 mcg/Kg is frequently used to treat human patients.^54 We estimated that a concentration of 2.4 μM (about 2 μg/ml) is a clinical relevant concentration. As described herein for experiments including Eptifibatide, 2 μg/ml of Eptifibatide were incubated with blood samples for 15 minutes at room temperature before adding sCollagen or before flowing through TNF-inflamed biomimetic vessel.
(§4) Adding Blood to a Vessel-On-Chip And Flow Conditions: A medical grade plastic reservoir was mounted on the chip, then 800 μl of the blood sample was pipetted into the reservoir. The chip was perfused with the blood by withdrawing it at a rate of 60 μl/minute using a syringe pump. The citrated blood was re-calcified 2 minutes after the beginning of each experiment by adding 100 μl/ml of a solution containing 100 mM calcium chloride and 75 mM magnesium chloride to the blood to permit calcium- and magnesium-dependent platelet function and coagulation.
(§5) Staining of Endothelial Cells: Samples were washed twice in cell culture medium and then fixed in acetone/methanol 1:1 at −20° C., for 10 minutes. Each sample was then washed three times in PBS and incubated in blocking solution consisting of PBS and 10% normal donkey serum (Abcam) for one hour. After blocking, samples were washed in PBS twice and then incubated with anti VE-Cadherin monoclonal antibody (Abeam) diluted 1:100 in blocking solution at 4° C. overnight. […] Fluorescence Image analysis: Chips perfused with blood samples were immediately imaged via fluorescence microscopy (Olympus 1X83, 10× objective UPLFLN10X2, Circa-Flash4.0 CMOS Camera). […] Image processing and quantification was performed with an automatic macro compiled in […] and numerical values corresponding to platelet coverage or fibrin florescence were collected and statistically analyzed in Graphpad Prism V7.
Platelet Coverage: A percentage of signal coverage (or Platelet coverage) was computed from the binary image as the ratio of bright pixels to the total number of pixels in the image, Image processing and quantification was performed with an automatic macro compiled in ImageJ in order to ensure unbiased signal measurements. […]

The subject of series [3] is fibrin deposition from human whole blood on HUVEC endothelium. Put plainly: Vessel-On-Chip blood perfusion, fibrin deposition by fluorescent fibrinogen imaging. The class given is cell-based. As to conditions: for fibrin deposition / fibrin signal intensity on the endothelium: vs blood alone, TNF-α 50 ng/ml 6 h, sCollagen 10 μg/ml, hu5C8 240 μg/ml + sCD40L 10 ng/ml. The procedure: as §3, §4
Visualizing Fibrin Deposition: When analyzing the formation of fibrin, 10 μg/ml of fluorescently labeled fibrinogen (Alexa 488, Invitrogen) was also added to the blood. While fluorescent fibrinogen was barely detected as a diffused fluorescence, fibrin deposition on inflamed cells and sparse clots was easily distinguished since fibrin formed filamentous structures produce a signal intensity that is clearly observed above a background threshold.
as §5, with “hour.” for “hour. After blocking, samples were washed in PBS twice and then incubated with anti VE-Cadherin monoclonal antibody (Abeam) diluted 1:100 in blocking solution at 4° C. overnight.”
Platelet Coverage: A percentage of signal coverage (or Platelet coverage) was computed from the binary image as the ratio of bright pixels to the total number of pixels in the image, Image processing and quantification was performed with an automatic macro compiled in ImageJ in order to ensure unbiased signal measurements. Numerical values corresponding to platelet coverage or fibrin fluorescence (signal intensity) were collected and statistically analyzed in Graphpad Prism V7.

In series [4] the test system is thrombin anti-thrombin complex (TAT). Put plainly: Thrombin-Anti Thrombin (TAT) measurement via ELISA in chip effluent. The class given is cell-based, human. The following applies: for levels of TAT in outflow: vs blood alone, TNF-α 50 ng/ml 6 h endothelial pre-treatment, sCollagen in blood, hu5C8 240 μg/ml + sCD40L 10 ng/ml. The procedure:
Thrombin-Anti Thrombin (TAT) measurement via ELISA: Thrombin Anti-Thrombin (TAT) levels were analyzed in plasma from blood flowing out of the chip device by removing a sample from the outflow port. Thus TAT levels were evaluated in sample effluents collected from the outflow port of the chip using the Human TAT ELISA Kit (Siemens Healthineers) according to the user manual.
Blood sampled from the Vessel-On-Chip outflow port was analyzed for thrombin anti-thrombin complex (TAT), a factor released upon activation of the coagulation cascade and one of the biomarkers associated with thrombotic events occurring in patients affected with deep vein thrombosis (DVT) or SLE^45,46. TAT is an accepted clinical biomarker for procoagulation^48,49. An enzyme-linked immunosorbent assay (ELISA) was used to quantify the thrombin anti-thrombin complex (TAT).
(An ELISA detects its analyte on a solid surface through an enzyme-linked reagent.)

A further series relates to p-selectin on platelets. Put plainly: Quality control of platelet activation by p-selectin expression. The series is classed as cell-based, human. As to conditions: control blood upon activation by ADP. The method, then:
as §2

In the next series the test system is ICAM1. Put plainly: ICAM1 immunostaining of endothelium on chip. The class given is cell-based, human. As to conditions: TNF-α stimulated endothelium. The procedure:
ICAM1 is shown with examples identified by white arrows. One example of a DAPI stained nuclei is shown inside of a white circle.
TNF-alpha Stimulation: In some experiment endothelial cells were stimulate with 50 ng/ml of TNF (Sigma) for 6 hours in order to induce vascular inflammation before blood perfusion.

Setting [5] is: Eptifibatide 2 ug/ml, endothelium inflamed with TNF-α, n=4.

Take “hu5C8: humanized monoclonal IgG1 antibody against CD40L (anti-CD154)”: in the series on lupus nephritis patients, the “incidence of thromboembolitic events” value was 2/18. In series [1], the “treatment-related effects compared to untreated blood” value is reported as “no significant treatment-related effects”.

In the case of `N=C(N)NCCCC[C@@H]1NC(=O)CCSSC[C@@H](C(N)=O)NC(=O)[C@@H]2CCCN2C(=O)[C@H](Cc2c[nH]c3ccccc23)NC(=O)[C@H](CC(=O)O)NC(=O)CNC1=O` [Eptifibatide] ([Mpa][hArg]GDWPC-NH2; disulfide 1-7), in series [2] (setting [5]), the “inhibition of platelet aggregation” value is “significantly inhibited”. Besides, the “inhibitory effect on platelet aggregation and fibrin clot formation” value in series [2] (Eptifibatide 2 ug/ml, following treatment with sCollagen, n=4) is on record as “comparatively modest”. The “platelet adhesion (image analysis of multiple experiments)” value in series [2] (Eptifibatide 2 ug/ml, n=4) is on record as “completely inhibited”. For the same molecule, in series [3] (setting [5]), the “inhibition of fibrin clot formation” value is listed as “significantly inhibited”. In series [3] (Eptifibatide 2 ug/ml, samples treated with TNF-α), the “fibrin signal remaining under Eptifibatide” value was “significant amount of fibrin signal was still detectable”. Also, the “effect on TAT increment associated with TNF-α-induced inflammation” value in series [4] (Eptifibatide 2 ug/ml, TNF-α pre-treated endothelium) is “did not inhibit”. The “effect on TAT increment due to sCollagen treatment” value in series [4] (Eptifibatide 2 ug/ml, sCollagen-treated blood) was “entirely suppressed”.

For the molecule `Nc1ncnc2c1ncn2[C@@H]1O[C@H](COP(=O)(O)OP(=O)(O)O)[C@@H](O)[C@H]1O` [ADP], the “platelets positive for p-selectin” value in the series on p-selectin on platelets is recorded as “over 90%”.

Take TNF-α: the “platelet coverage / platelet aggregate formation on the endothelium” value in series [2] is recorded as “increased”. For the same molecule, the “expression of ICAM1 in the endothelium compared to the control” value in the series with ICAM1 was “increased expression”. Further, the “fibrin deposition / fibrin signal intensity on the endothelium” value in series [3] is listed as “increased”. For the same molecule, in series [4], the “levels of TAT in outflow” value was “significantly increased”.

For “sCollagen: soluble collagen (Soluble Calf Skin, Type I), a standard platelet activator”, the “platelet coverage / platelet aggregate formation on the endothelium” value in series [2] is listed as “increased”. Moreover, the “fibrin deposition / fibrin signal intensity on the endothelium” value in series [3] is on record as “increased”. For the same molecule, the “levels of TAT in outflow” value in series [4] is given as “minimally increased”.
